The target of one data set is PI3K (p110α/p85α) (h) (Homo sapiens (Human), UniProt P42336). Nature of the data set: PI3K (p110α/p85α) (h) non-radioactive HTRF kinase assay. It is filed as biochemical. The following applies: performed at Millipore UK Ltd. The method, then:
The above assay procedure can be used to determine the IC50 for inhibition and/or the inhibition constant, Ki.
PI3K (p110α/p85α) (h) [Non-Radioactive Assay]
PI3K (p110α/p85α) (h) is incubated in assay buffer containing 10 μM phosphatidylinositol 4,5-bisphosphate and MgATP (concentration as required). The reaction is initiated by the addition of the ATP solution. After incubation for 30 minutes at room temperature, the reaction is stopped by the addition of stop solution containing EDTA and biotinylated phosphatidylinositol-3,4,5-trisphosphate. Finally, detection buffer is added, which contains europium-labelled anti-GST monoclonal antibody, GST-tagged GRP1 PH domain and streptavidin allophycocyanin. The plate is then read in timeresolved fluorescence mode and the homogenous time-resolved fluorescence (HTRF) signal is determined according to the formula HTRF=10000×(Em665 nm/Em620 nm).
The kinase assays described herein were performed at Millipore UK Ltd, Dundee Technology Park, Dundee DD2 1SW, UK.
In general terms: In TR-FRET formats the signal depends on donor and acceptor labels being close together.

The target in another data set is PI3K (p110δ/p85α) (h) (Homo sapiens (Human), UniProt O00329). Kind of data set: PI3K (p110δ/p85α) (h) non-radioactive HTRF kinase assay. In kind it is biochemical. The following applies: performed at Millipore UK Ltd. The procedure, abridged:
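Human p110δ/p85α incubated with 10 μM phosphatidylinositol-4,5-bisphosphate, reaction started with MgATP (concentration as required), 30 min at room temperature. Stopped with EDTA plus biotinylated PIP3; detection by HTRF with Eu-anti-GST antibody, GST-GRP1 PH domain and streptavidin-APC, signal = 10000×(Em665/Em620). Yields IC50 and/or Ki.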

Data set [1] can be described thus: Pharmacokinetic profiles in dogs. In kind it is in vivo. The following applies: Dog; for clearance / AUC(0-t) / half-life / Vd: iv dosing 1 mg/kg; for F: oral vs iv (iv 1 mg/kg; p.o. generally 10 mg/kg); for AUC(0-t) / half-life / Vd: plasma; for Vd: read-out: Vss. The protocol:
(§1) The compounds disclosed herein are assessed in pharmacokinetic studies in mice, rats, dogs or monkeys. The compounds are administered as a water solution, 2% HPMC+1% TWEEN®80 in water solution, 5% DMSO+5% solutol in saline, 4% MC suspension or capsule. For the intravenous administration, the animals are generally given at 1 or 2 mg/kg dose. For the oral (p.o.) dosing, mice and rats are generally given 5 or 10 mg/kg dose, and dogs and monkeys are generally given 10 mg/kg dose. The blood samples (0.3 mL) are drawn at 0.25, 0.5, 1.0, 2.0, 3.0, 4.0, 6.0, 8.0, 12 and 24 h time points or 0.083, 0.25, 0.5, 1.0, 2.0, 4.0, 6.0, 8.0 and 24 h time points and centrifuged at 3,000 or 4000 rpm for 2 to 10 min. The plasma solutions are collected, stored at −20° C. or −70° C. until analyzed by LC/MS/MS as described above.

Data set [2] in a line: Pharmacokinetic profiles in monkeys. As to conditions: Monkey; for Cl/F / AUC(0-t) / half-life / Vd: iv dosing 1 mg/kg; for F: oral vs iv (iv 1 mg/kg; p.o. generally 10 mg/kg); for AUC(0-t) / half-life / Vd: plasma; for Vd: read-out: Vss. In kind it is in vivo. The protocol:
as §1

PI3K (p110δ/p85α) (h), sequence (O00329 whole entry, the tested form may be a part): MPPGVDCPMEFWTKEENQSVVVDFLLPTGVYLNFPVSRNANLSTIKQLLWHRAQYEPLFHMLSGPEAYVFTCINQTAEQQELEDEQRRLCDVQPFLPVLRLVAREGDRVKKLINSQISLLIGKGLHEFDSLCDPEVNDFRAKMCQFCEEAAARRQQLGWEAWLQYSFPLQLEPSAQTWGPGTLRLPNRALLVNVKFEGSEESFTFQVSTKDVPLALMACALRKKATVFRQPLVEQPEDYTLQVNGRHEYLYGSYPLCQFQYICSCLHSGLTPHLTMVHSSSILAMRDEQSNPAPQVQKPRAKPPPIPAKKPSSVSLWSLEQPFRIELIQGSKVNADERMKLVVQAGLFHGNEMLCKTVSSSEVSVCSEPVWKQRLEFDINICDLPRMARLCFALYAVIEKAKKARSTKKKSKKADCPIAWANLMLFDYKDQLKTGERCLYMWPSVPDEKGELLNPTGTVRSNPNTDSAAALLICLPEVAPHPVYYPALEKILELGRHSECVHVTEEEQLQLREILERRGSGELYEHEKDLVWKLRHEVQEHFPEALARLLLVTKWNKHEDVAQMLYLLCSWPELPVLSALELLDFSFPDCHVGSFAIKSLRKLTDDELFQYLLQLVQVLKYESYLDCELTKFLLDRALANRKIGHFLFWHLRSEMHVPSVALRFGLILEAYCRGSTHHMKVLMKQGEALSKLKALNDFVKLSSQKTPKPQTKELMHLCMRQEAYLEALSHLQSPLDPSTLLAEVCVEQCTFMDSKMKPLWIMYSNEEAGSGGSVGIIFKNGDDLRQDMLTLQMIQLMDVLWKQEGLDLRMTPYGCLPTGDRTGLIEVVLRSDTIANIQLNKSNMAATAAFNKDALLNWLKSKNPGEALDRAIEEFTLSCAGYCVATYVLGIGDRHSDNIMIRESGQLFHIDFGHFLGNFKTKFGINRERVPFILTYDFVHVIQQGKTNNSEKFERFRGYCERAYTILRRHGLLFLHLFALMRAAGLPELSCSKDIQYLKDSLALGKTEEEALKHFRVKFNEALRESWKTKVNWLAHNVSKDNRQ
PI3K (p110δ/p85α) (h), sequence (P27986 whole entry partner, the tested form may be a part): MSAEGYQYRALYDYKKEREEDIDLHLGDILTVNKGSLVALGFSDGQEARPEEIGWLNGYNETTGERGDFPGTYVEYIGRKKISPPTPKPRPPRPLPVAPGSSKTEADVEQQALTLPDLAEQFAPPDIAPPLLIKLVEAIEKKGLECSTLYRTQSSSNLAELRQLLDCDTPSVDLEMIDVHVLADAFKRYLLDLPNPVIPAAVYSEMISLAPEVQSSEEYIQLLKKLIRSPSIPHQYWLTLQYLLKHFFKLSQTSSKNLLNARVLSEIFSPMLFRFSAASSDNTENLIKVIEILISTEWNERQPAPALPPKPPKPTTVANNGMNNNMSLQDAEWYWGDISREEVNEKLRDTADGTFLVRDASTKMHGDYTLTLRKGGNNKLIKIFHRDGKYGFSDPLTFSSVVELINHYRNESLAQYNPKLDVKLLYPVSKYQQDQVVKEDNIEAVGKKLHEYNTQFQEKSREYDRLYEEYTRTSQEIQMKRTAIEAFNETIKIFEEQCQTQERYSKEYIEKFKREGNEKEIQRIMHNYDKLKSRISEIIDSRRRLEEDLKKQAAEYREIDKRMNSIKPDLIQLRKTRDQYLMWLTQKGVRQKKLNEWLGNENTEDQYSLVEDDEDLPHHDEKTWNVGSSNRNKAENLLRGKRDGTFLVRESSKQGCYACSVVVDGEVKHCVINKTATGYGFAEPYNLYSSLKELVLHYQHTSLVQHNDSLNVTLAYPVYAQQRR
PI3K (p110α/p85α) (h), sequence (P42336 whole entry): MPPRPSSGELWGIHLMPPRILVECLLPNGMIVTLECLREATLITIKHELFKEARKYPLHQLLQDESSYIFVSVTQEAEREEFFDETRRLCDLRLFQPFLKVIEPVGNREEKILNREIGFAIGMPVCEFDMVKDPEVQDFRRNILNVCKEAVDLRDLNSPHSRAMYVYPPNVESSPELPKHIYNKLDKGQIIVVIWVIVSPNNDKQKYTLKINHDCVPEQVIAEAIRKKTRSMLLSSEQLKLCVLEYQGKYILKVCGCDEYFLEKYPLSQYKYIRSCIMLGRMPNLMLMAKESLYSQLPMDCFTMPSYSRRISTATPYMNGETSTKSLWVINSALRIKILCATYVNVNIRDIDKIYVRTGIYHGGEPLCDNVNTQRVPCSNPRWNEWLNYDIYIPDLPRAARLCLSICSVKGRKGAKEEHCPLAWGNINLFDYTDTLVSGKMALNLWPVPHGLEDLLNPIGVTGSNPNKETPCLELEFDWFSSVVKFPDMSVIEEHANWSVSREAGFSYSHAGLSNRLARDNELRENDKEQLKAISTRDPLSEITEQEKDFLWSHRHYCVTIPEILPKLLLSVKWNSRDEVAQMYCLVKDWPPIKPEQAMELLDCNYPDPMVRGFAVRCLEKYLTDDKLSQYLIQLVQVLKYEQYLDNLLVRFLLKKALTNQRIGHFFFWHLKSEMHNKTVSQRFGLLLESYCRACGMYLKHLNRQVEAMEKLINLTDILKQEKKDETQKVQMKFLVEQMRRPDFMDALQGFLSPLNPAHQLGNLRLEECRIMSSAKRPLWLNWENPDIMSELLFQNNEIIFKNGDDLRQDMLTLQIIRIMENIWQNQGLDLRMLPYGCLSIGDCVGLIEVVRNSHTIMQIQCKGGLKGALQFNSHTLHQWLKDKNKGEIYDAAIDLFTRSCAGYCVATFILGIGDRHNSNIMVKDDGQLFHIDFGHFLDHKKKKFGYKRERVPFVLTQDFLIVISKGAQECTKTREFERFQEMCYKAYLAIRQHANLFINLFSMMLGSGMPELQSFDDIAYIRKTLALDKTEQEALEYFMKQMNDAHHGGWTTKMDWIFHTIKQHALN
PI3K (p110α/p85α) (h), sequence (P27986 whole entry partner): as the sequence (P27986 whole entry partner, the tested form may be a part) above

Usually IC50 stands for the concentration at which inhibition is half-maximal. Take `Cc1nnc(-c2c(N)ncnc2N[C@@H](C)c2cc3cccc(Cl)c3c(=O)n2C2CC2)o1` [Ex. 4, (S)-3-(1-((6-amino-5-(5-methyl-1,3,4-oxadiazol-2-yl)pyrimidin-4-yl)amino)ethyl)-8-chloro-2-cyclopropylisoquinolin-1(2H)-one]: the concentration for half-maximal inhibition (IC50) is 1.47 µM on PI3K (p110α/p85α) (h) and 0.011 µM on PI3K (p110δ/p85α) (h).
As a reminder, the clearance is the rate of elimination divided by the concentration. A higher clearance goes with efficient removal. One may read the AUC(0-t) as exposure summed from dosing to a finite time, without extrapolation to infinity. A lower AUC(0-t) goes with low exposure. For orientation: half-life means how long it takes for the measured level to halve. Read a high half-life as slow loss. Turning to `Cc1noc(-c2c(N)ncnc2N[C@@H](C)c2cc3cccc(Cl)c3c(=O)n2-c2ccccc2)n1` [Ex. 8, (S)-3-(1-((6-amino-5-(3-methyl-1,2,4-oxadiazol-5-yl)pyrimidin-4-yl)amino)ethyl)-8-chloro-2-phenylisoquinolin-1(2H)-one], the IC50 at PI3K (p110α/p85α) (h) came to 0.276 µM. Besides, in data set [1], the clearance is 12.2 mL/min/kg, the F is 52.85%, the AUC(0-t) came to 1350 ng·h/mL and the half-life was 1.7 h. Further, the Vd in data set [1] stood at 1.43 L/kg. Further, in data set [2], the Cl/F is 24.3 mL/min/kg, the F is reported as 13.1%, the AUC(0-t) turned out to be 711 ng·h/mL and the half-life is 0.65 h. Also, the Vd in data set [2] stood at 1.2 L/kg. Further, the IC50 at PI3K (p110δ/p85α) (h) amounted to 0.001 µM.
Consider `Cc1nnc(-c2c(N)ncnc2N[C@@H](C)c2cc3cccc(Cl)c3c(=O)n2-c2ccccc2)o1` [Ex. 9, (S)-3-(1-((6-amino-5-(5-methyl-1,3,4-oxadiazol-2-yl)pyrimidin-4-yl)amino)ethyl)-8-chloro-2-phenylisoquinolin-1(2H)-one], for which the IC50 at PI3K (p110α/p85α) (h) was 2.68 µM. In data set [1], this compound had a clearance of 23.7 mL/min/kg, an F of 72.99%, an AUC(0-t) of 695 ng·h/mL and a half-life of 1.25 h. Further, the Vd in data set [1] came out at 2.04 L/kg. In data set [2], this compound had a Cl/F of 14.8 mL/min/kg, an F of 179.7%, an AUC(0-t) of 1120 ng·h/mL and a half-life of 1.23 h. The Vd in data set [2] worked out at 1.17 L/kg. For the same compound, the IC50 at PI3K (p110δ/p85α) (h) was found to be 0.004 µM.
Turning to `Cc1nnc(-c2c(N)ncnc2N[C@@H](C)c2cc3cccc(-c4cnn(C)c4)c3c(=O)n2C2CC2)o1` [Ex. 25, (S)-3-(1-((6-amino-5-(5-methyl-1,3,4-oxadiazol-2-yl)pyrimidin-4-yl)amino)ethyl)-2-cyclopropyl-8-(1-methyl-1H-pyrazol-4-yl)isoquinolin-1 (2H)-one], the IC50 was determined as 0.882 µM at PI3K (p110α/p85α) (h) and 0.013 µM on PI3K (p110δ/p85α) (h).
The corresponding values for `Cc1noc(-c2c(N)ncnc2N[C@@H](C)c2cc3cccc(-c4cnn(C)c4)c3c(=O)n2C2CC2)n1` [Ex. 26, (S)-3-(1-((6-amino-5-(3-methyl-1,2,4-oxadiazol-5-yl)pyrimidin-4-yl)amino)ethyl)-2-cyclopropyl-8-(1-methyl-1H-pyrazol-4-yl)isoquinolin-1 (2H)-one] are 0.132 µM and 0.004 µM.

(Values after patent US9512114B2, “Substituted aminopyrimidine compounds and methods of use” (Calitor Sciences, LLC, priority 2013, dated 2016).)
